Results: patent publication US20250064789A1, “KETOAMIDE DERIVATIVES AND PHARMACEUTICAL USES THEREOF” (priority 2022, published 2025)

Legend:
in vivo = conditions: male, Sprague-Dawley, rat
[1] = male, Sprague-Dawley, rat, in vivo, iv, 1 mg/kg
[2] = molecular target: recombinant SARS-CoV-2 M^pro (Severe acute respiratory syndrome coronavirus 2 (2019-nCoV) (SARS-CoV-2), UniProt P0DTD1); assay: Inhibition of SARS-CoV-2 M^pro enzyme activity (fluorescent substrate assay); type: biochemical; conditions: inhibition of SARS-CoV-2 M^pro enzyme activity; values in nM; read-out: IC50
[3] = Cytotoxic assay against Vero E6 cells (MTT, 72 h); type: cell-based; conditions: African green monkey
Protocol: The cytotoxicity assessment of compounds was performed against Vero E6 cells. The specific experimental procedures: Vero E6 cells were seeded into a 96-well plate at a cell density of 2×10^4 cells/well, with 100 μL/well, and then incubated overnight at 37° C. in a 5% CO2 incubator. The next day, 100 μL of drug-containing medium was added to each well. The compound was diluted in a 2-fold serial dilution with a top concentration of […], for a total of 6 gradients. Three repeated wells were set for each concentration, and negative controls and blank controls without drugs were included for each experiment. […] All experimental data were analyzed using GraphPad Prism software.

Row | Compound | AUC(0-inf) (in vivo; iv, 1 mg/kg) [ng·h/mL] | AUC(0-t) (in vivo; iv, 1 mg/kg) [ng·h/mL] | Cmax (in vivo; iv, 1 mg/kg) [ng/mL] | MRT inf (in vivo; iv, 1 mg/kg) [h] | Tmax (in vivo; iv, 1 mg/kg) [h] | clearance (in vivo; iv, 1 mg/kg) [mL/min/kg] | half-life (in vivo; iv, 1 mg/kg) [h] | AUC(0-inf) (in vivo; po, 10 mg/kg) [ng·h/mL] | AUC(0-t) (in vivo; po, 10 mg/kg) [ng·h/mL] | Cmax (in vivo; po, 10 mg/kg) [ng/mL] | MRT inf (in vivo; po, 10 mg/kg) [h] | Tmax (in vivo; po, 10 mg/kg) [h] | bioavailability (in vivo; po, 10 mg/kg) [%] | half-life (in vivo; po, 10 mg/kg) [h] | Vssobs [1] [L/kg] | IC50 [2] [nM] | CC50 at 72 h [3] [nM]
1 | C[C@@H](NC(=O)[C@@H]1C[C@@H]2[C@H](C1)C2(F)F)C(=O)N[C@H](Cc1ccccc1)C(=O)C(=O)NCc1ccccn1 [Compound 126] | 1070 ± 295 | 1050 ± 285 | 1860 ± 138 | 1.06 ± 0.56 | 0.08 | 4.63 ± 3.62 | 3.65 ± 3.48 | 5270 ± 327 | 5270 ± 325 | 1559 ± 11.6 | 4.02 ± 0.17 | 0.5 | 49.9 ± 3.08 | 2.46 ± 0.15 | 16.6 ± 5.41 | 11.1 ± 0.6 | > 500000
2 | C[C@@H](NC(=O)C1CCC(F)(F)CC1)C(=O)N[C@H](Cc1ccccc1)C(=O)C(=O)NCc1ccccn1 [Compound 145] | 1180 ± 208 | 1160 ± 205 | 1640 ± 86.6 | 1.09 ± 0.13 | 0.08 | 1.73 ± 0.37 | 1.37 ± 0.05 | 3850 ± 875 | 3830 ± 872 | 1170 ± 223 | 3.75 ± 0.56 | 0.33 ± 0.14 | 32.9 ± 7.51 | 3.19 ± 0.06 | 14.5 ± 2.62 | 17.1 ± 2.5 | –
3 | O=C(CC1CCC(F)(F)CC1)NCC(=O)N[C@H](Cc1ccccc1)C(=O)C(=O)NCc1ccccn1 [Compound 150] | 6630 ± 2650 | 6420 ± 2820 | 2010 ± 322 | 3.94 ± 1.26 | 0.08 | 0.83 ± 0.21 | 3.59 ± 0.8 | 12900 ± 3230 | 12600 ± 3080 | 1300 ± 307 | 5.95 ± 0.09 | 0.42 ± 0.14 | 19.7 ± 4.8 | 4.26 ± 0.63 | 2.91 ± 1.48 | 12.2 ± 0.1 | > 500000
4 | O=C(CCC1CCC(F)(F)CC1)NCC(=O)N[C@H](Cc1ccccc1)C(=O)C(=O)NCc1ccccn1 [Compound 153] | – | – | – | – | – | – | – | 26000 ± 265 | 23500 ± 676 | 1980 ± 97.7 | 7.08 ± 0.25 | 1.67 ± 0.58 | – | 7.14 ± 0.46 | – | 12 ± 0.6 | –
5 | O=C(CNC(=O)C1CCC(F)(F)CC1)N[C@H](Cc1ccccc1)C(=O)C(=O)NCc1ccccn1 [Compound 155] | 5120 ± 628 | 5100 ± 615 | 1570 ± 7.88 | 3.99 ± 0.42 | 0.08 | 0.88 ± 0.1 | 3.12 ± 0.35 | 12400 ± 2230 | 12300 ± 2270 | 1150 ± 289 | 5.98 ± 0.36 | 0.33 ± 0.14 | – | 3.75 ± 0.62 | 3.29 ± 0.42 | 14.1 ± 0.1 | 281000
6 | CC(C)(NC(=O)C1CCC(F)(F)CC1)C(=O)N[C@H](Cc1ccccc1)C(=O)C(=O)NCc1ccccn1 [Compound 172] | – | – | – | – | – | – | – | – | – | – | – | – | – | – | – | 14.9 ± 0.7 | 341000
7 | CC(C)(NC(=O)[C@@H]1C[C@@H]2[C@H](C1)C2(F)F)C(=O)N[C@H](Cc1ccccc1)C(=O)C(=O)NCc1ccccn1 [Compound 174] | – | – | – | – | – | – | – | – | – | – | – | – | – | – | – | 13.2 ± 1 | > 500000
8 | CC(C)(NC(=O)c1cc(OC(F)(F)F)ccc1F)C(=O)N[C@H](Cc1ccccc1)C(=O)C(=O)NCc1ccccn1 [Compound 177] | – | – | – | – | – | – | – | – | – | – | – | – | – | – | – | 10.5 ± 0.2 | 157000
9 | O=C(NCc1ccccn1)C(=O)[C@@H](Cc1ccccc1)NC(=O)[C@H]1COCCN1C(=O)C1CCC(F)(F)CC1 [Compound 288] | – | – | – | – | – | – | – | 3500 ± 1250 | 3490 ± 1250 | 1140 ± 207 | 3.59 ± 0.11 | 0.75 ± 0.43 | – | 3.03 ± 0.36 | – | 14.6 ± 0.4 | –
10 | O=C(NCc1ccccn1)C(=O)[C@@H](Cc1ccccc1)NC(=O)[C@H]1COCCN1C(=O)CC1CCC(F)(F)CC1 [Compound 289] | – | – | – | – | – | – | – | 3250 ± 462 | 3240 ± 460 | 1040 ± 349 | 2.98 ± 0.33 | 0.5 | – | 3.28 ± 0.19 | – | 10.6 ± 0.1 | > 500000
11 | O=C(NCc1ccccn1)C(=O)[C@@H](Cc1ccccc1)NC(=O)[C@H]1COCCN1C(=O)[C@H](NC(=O)c1cnccn1)C1CCCCC1 [Compound 290] | – | – | – | – | – | – | – | 3120 ± 894 | 3110 ± 894 | 722 ± 235 | 4.16 ± 0.3 | 0.5 | – | 2.66 ± 0.11 | – | 11.3 ± 0.2 | –
12 | C[C@@H](NC(=O)N1CCC(F)(F)CC1)C(=O)N[C@H](Cc1ccccc1)C(=O)C(=O)NCc1ccccn1 [Compound 296, N—((R)-1-(((R)-3,4-dioxo-1-phenyl-4-((pyridin-2-ylmethyl)amino)butan-2-yl)amino)-1-oxopropan-2-yl)-4,4-difluoropiperidin-1-formamide] | 1040 ± 162 | 1020 ± 156 | 1400 ± 22.9 | 1.17 ± 0.44 | 0.08 | 4.65 ± 3.87 | 3.55 ± 3.39 | 5190 ± 1010 | 5180 ± 1010 | 1040 ± 209 | 4.43 ± 0.87 | 0.25 | 50.6 ± 9.84 | 2.8 ± 0.09 | 16.3 ± 2.68 | 14.8 ± 0.1 | –
13 | C[C@@H](NC(=O)C1CCC(F)(F)CC1)C(=O)N[C@H](Cc1ccccc1)C(=O)C(=O)NCc1ccccn1 [Compound 317] | – | – | – | – | – | – | – | – | – | – | – | – | – | – | – | 16 ± 0.3 | > 500000
